Results as given in US9540361B2, “N-substituted azetidine derivatives” (Merck Sharp & Dohme B.V., priority 2010, dated 2017).
Marks after values point to notes of the source that are not given here.

How the values were obtained:
MCF-7H cells = assay: 7-day in vitro proliferation assay in tamoxifen-resistant MCF-7H breast cancer cells (methyl-3H-thymidine incorporation); format: cell-based, human; details: for Efficacy (fractional to E2): fraction of maximal response, E2 = 1.00 per definition; for Efficacy (fractional to E2) / % E2: MCF-7H; for % E2: relative potency to induce proliferation, normalized against E2 (=100 per definition); for Emax: Homo sapiens, MCF7, 168 h, efficacy (fraction of maximal response relative to E2) in MCF-7H proliferation, read-out: MCF7 ia; for induce proliferation of MCF-7H breast cancer cells: potency range and efficacy in words
Procedure: To what extent compounds are capable of stimulating proliferation in ER-positive, tamoxifen-resistant breast cancer cells is tested in a 7-day in vitro proliferation assay using MCF-7H cells. More specifically, this in vitro bioassay is used to determine the efficacy (fraction of maximal response), pEC50, and relative potency of the compound to induce proliferation by comparing the data for this compound with those of the reference compound 17β-estradiol (E2) in the same test.
A more detailed description of the method used is as follows.
Cell culture: The human epithelial breast cancer cell line MCF-7H (origin: Hubrecht Laboratory, Utrecht, The Netherlands) was routinely maintained in complete medium which is a 1:1 mixture of Ham's F12 medium and Dulbecco's Modified Eagle Medium (DMEM; Invitrogen, Carlsbad, USA) without phenol red and enriched with 5% fetal calf serum (FCS; Hyclone, Utah, USA), 100 μg/ml streptomycin and 100 units/ml penicillin adapted to contain:
Cells were grown in 80 cm^2 culture flasks (Nunc, Roskilde, Denmark) and kept in an atmosphere of 5% CO2-95% air at 37 degrees Celsius. Cells were subcultured when they reached about 80-90% confluence, resulting in one passage a week. Subculturing includes detaching the cells using trypsin/EDTA and diluting the cell suspension 10 times.
Methyl-^3H-thymidine incorporation assay: MCF-7H cells were starved overnight in assay medium containing 5% charcoal-treated (CT) bovine calf serum (BCS; Hyclone) instead of FCS and a final concentration of 1.0 μg/ml bovine insulin, the day before plating. Cells were plated in assay medium containing 5% CT BCS, in white 24-wells plates (Perkin Elmer, Shelton, USA), at a density of 7.5×10^3 cells per well, each well containing 630 μL assay medium. Cells were allowed to attach and spread for 24 h before stimulation with reference and/or test compound(s). After a stimulation period of 7 days, 0.25 μCi/well of methyl-^3H-thymidine (GE Healthcare Limited, Buckinghamshire, UK) was added per well. Cultures were maintained in an atmosphere of 5% CO2-95% air at 37 degrees Celsius. After overnight incubation, excess methyl-^3H-thymidine was aspirated and the cells were washed with phosphate-buffered saline (PBS). After 1 h of incubation with 1 ml scintillation fluid Microscint-20 (Perkin Elmer), radioactivity was measured in a Packard TOP-count NXT microplate scintillation counter (Perkin Elmer).

[1] = target: T1, human estrogen receptor α (hERα) (Homo sapiens, UniProt P03372); assay: antagonistic activity in CHO cells co-transfected with hERα, rat oxytocin promoter and luciferase reporter gene; format: cell-based; details: antagonism of 17β-estradiol-induced transactivation, CHO-hERα-RO-LUC; read-out: ERα pIC50 (converted)
T1 sequence (P03372 1-595): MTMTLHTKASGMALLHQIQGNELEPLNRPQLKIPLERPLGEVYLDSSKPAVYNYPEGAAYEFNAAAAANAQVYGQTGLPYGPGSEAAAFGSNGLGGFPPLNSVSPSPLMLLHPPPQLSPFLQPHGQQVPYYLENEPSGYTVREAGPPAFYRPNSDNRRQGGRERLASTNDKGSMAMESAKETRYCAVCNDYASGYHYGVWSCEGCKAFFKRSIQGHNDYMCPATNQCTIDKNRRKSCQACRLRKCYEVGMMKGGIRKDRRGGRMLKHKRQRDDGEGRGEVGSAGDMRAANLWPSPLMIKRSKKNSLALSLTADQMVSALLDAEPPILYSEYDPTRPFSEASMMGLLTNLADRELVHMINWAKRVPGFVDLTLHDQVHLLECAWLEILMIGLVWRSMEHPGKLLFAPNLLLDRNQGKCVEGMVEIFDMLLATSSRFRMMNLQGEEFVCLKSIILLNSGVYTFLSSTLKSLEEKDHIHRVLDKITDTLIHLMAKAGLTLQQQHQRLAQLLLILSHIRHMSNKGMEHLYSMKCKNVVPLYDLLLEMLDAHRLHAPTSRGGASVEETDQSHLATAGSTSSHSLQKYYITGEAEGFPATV
Summary of the method: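 Efficacy is the fraction of maximal inhibition of 17β-estradiol-activated receptor, normalised to ICI 164,384 maximal inhibition. Read-out is luciferase in CHO cells stably co-transfected with human ERα and an oxytocin-promoter-driven reporter.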

estrogen receptor alpha = target: T2, estrogen receptor alpha (Homo sapiens, UniProt P03372); assay: ERα downregulation assay in T47D breast cancer cells (ERα ELISA); format: cell-based; details: 24 hours; for DR (%): downregulation of ERα relative to fulvestrant (100%), 1E-5 M, negative = upregulation
T2 construct: endogenous in cells; host or cells: T47D human breast cancer cells (ATCC)
T2 sequence (P03372 1-595): T1 sequence (P03372 1-595)
Summary of the method: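 T47D cells were treated with 1E-5 M test compound for 24 hours, then lysed in the well. ERα protein content was measured by ELISA. Efficacy is given as fraction of maximal response relative to fulvestrant, defined as 100% downregulation.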

[2] = Rapid Rat PK after oral administration; format: in vivo, rats (Rattus Norvegicus); details: 20 umol/kg, plasma, oral 20 μmol/kg; for AUC: AUC(0-6h), read-out: RRat AUC; for Cmax: read-out: RRat Cmax
Procedure: In the context of the present invention with “orally bioavailable” is meant that compounds, when dosed orally to a rat show oral exposure as determined by quantification of compound plasma levels in that rat. Typically, compounds are dosed orally at 20 μmol/kg, as described in Example 14 hereinbelow. Oral exposure is determined by measuring plasma levels over the time range of 0-6 h after dosing and is expressed by AUC(0-6h).
This test was used to determine the pharmacokinetic parameters (AUC(0-6h), Cmax and Tmax) after oral administration of compounds in male (intact or castrated) or female (intact or ovariectomized) rats (Rattus Norvegicus).
After oral administration of a compound at 20 μmol/kg, blood was collected at various time points (0.5, 1, 2, 3, 4 and 6 hours after compound administration) via the tail vein. Plasma samples were pooled per time point, after which the concentration was determined in plasma by means of LC-MS. Pharmacokinetic parameters (AUC(0-6h), Cmax and Tmax) were derived from the obtained concentration versus time curves using the non-compartmental analysis module in Animals! or WinNonlin.

IC50 [1]	DR (%) (estrogen receptor alpha)	Structure (SMILES)	Efficacy (fractional to E2) (MCF-7H cells)	% E2 (MCF-7H cells)	Emax (MCF-7H cells)	also measured
		COc1ccc(-c2sc3cc(O)ccc3c2Oc2ccc(OCCN3CCCCC3)cc2)cc1 [Arzoxifene]	0.34	99.1%		
		CC/C(=C(\c1ccccc1)c1ccc(OCCN(C)C)cc1)c1ccccc1 [Tamoxifen]	0.58	0.008%		
0.251 nM	47%	CCCN1CC(Oc2ccc([C@@H]3c4ccc(O)cc4CC[C@@H]3c3ccccc3)cc2)C1.Cl [compound 6q, (5R,6S)-6-phenyl-5-(4-(1-propylazetidin-3-yloxy)phenyl)-5,6,7,8-tetrahydronaphthalen-2-ol hydrochloride]			6%	
		CC/C(=C(/c1ccc(OCCN(C)C)cc1)c1cccc(O)c1)c1ccccc1 [Droloxifene]	0.38	5.9%		
3.16 nM	93%	CCCN1CC(Oc2ccc(C(=O)c3c(-c4c(F)cccc4F)noc3-c3ccc(O)cc3)cc2)C1.Cl [compound 7ak, (3-(2,6-difluorophenyl)-5-(4-hydroxyphenyl)isoxazol-4-yl)(4-(1-propylazetidin-3-yloxy)phenyl)methanone hydrochloride]			7%	
5.01 nM	63%	CCCN1CC(Oc2ccc(C(=C(CC)c3ccccc3)c3cccc(O)c3)cc2)C1 (mixture of isomers) [compound 6w, (E/Z)-3-(2-phenyl-1-(4-(1-propylazetidin-3-yloxy)phenyl)but-1-enyl)phenol]				AUC [2]: 1.07 µM·h; Cmax [2]: 230 nM
		O=C(c1ccc(OCCN2CCCCC2)cc1)c1c(-c2ccc(O)cc2)sc2cc(O)ccc12 [Raloxifene]	0.33	21.1%		
2.51 nM	94%	O=C(c1ccc(OC2CN(CCCF)C2)cc1)c1c(-c2ccccc2Cl)noc1-c1ccc(O)cc1 [compound 7ah]			6%	
		C[C@]12CC[C@@H]3c4ccc(O)cc4CC[C@H]3[C@@H]1CC[C@@H]2O [E2, 17β-estradiol]	1.00 ^a	100 ^a %		induce proliferation of MCF-7H breast cancer cells (MCF-7H cells): in the picomolar range and with full efficacy
25.1 nM	84%	CCCN1CC(Oc2ccc(C(O)c3c(-c4ccccc4Cl)noc3-c3ccc(O)cc3)cc2)C1 (centres unmarked) [compound 7av, 4-(3-(2-chlorophenyl)-4-(hydroxy(4-(1-propylazetidin-3-yloxy)phenyl)methyl)isoxazol-5-yl)phenol]				AUC [2]: 3.8 µM·h; Cmax [2]: 990 nM
6.31 nM	88%	CCCN1CC(Oc2ccc(C(=O)c3c(-c4ccc(O)cc4)noc3-c3ccccc3C)cc2)C1.Cl [compound 7az, (3-(4-hydroxyphenyl)-5-o-tolylisoxazol-4-yl)(4-(1-propylazetidin-3-yloxy)-phenyl)methanone hydrochloride]			8%	
1 nM	93%	Cl.Oc1ccc(-c2onc(-c3ccccc3Cl)c2-c2ccc(OC3CN(CCCF)C3)cc2)cc1 [compound 7aa, 4-(3-(2-chlorophenyl)-4-(4-(1-(3-fluoropropyl)azetidin-3-yloxy)phenyl)isoxazol-5-yl)phenol hydrochloride]				AUC [2]: 3.58 µM·h; Cmax [2]: 990 nM
2 nM	90%	CCCN1CC(Oc2ccc(C(=O)c3c(-c4ccccc4C)nsc3-c3ccc(O)cc3)cc2)C1.Cl [compound 7bb, (5-(4-hydroxyphenyl)-3-o-tolylisothiazol-4-yl)(4-(1-propylazetidin-3-yloxy)-phenyl)methanone hydrochloride]			3%	
0.316 nM	57%	Cl.Oc1ccc(-c2onc(-c3ccccc3Cl)c2-c2ccc(OC3CN(CC4CC4)C3)cc2)cc1 [compound 7y, 4-(3-(2-chlorophenyl)-4-(4-(1-(cyclopropylmethyl)azetidin-3-yloxy)phenyl)-isoxazol-5-yl)phenol hydrochloride]				AUC [2]: 1.2 µM·h; Cmax [2]: 290 nM
		C#C[C@]1(O)CC[C@H]2[C@@H]3CCc4cc(O)ccc4[C@H]3CC[C@@]21C [EE, Ethynyl Estradiol]	0.99	137%		induce proliferation of MCF-7H breast cancer cells (MCF-7H cells): in the picomolar range and with full efficacy
		CC/C(=C(\c1ccc(O)cc1)c1ccc(OCCN(C)C)cc1)c1ccccc1 [4OHT, 4-OH-tamoxifen]	0.49	2.3%		
1.58 nM	79%	CCCN1CC(Oc2ccc(C(=O)c3c(-c4ccc(O)cc4)sc4cc(O)ccc34)cc2)C1.O=C(O)C(F)(F)F [compound 6d, (6-hydroxy-2-(4-hydroxyphenyl)benzo[b]thiophen-3-yl)(4-(1-propylazetidin-3-yloxy)phenyl)methanone 2,2,2-trifluoroacetate]			5%	
0.794 nM	53%	CCCN1CC(Oc2ccc(-c3c(-c4ccc(O)cc4)sc4cc(O)ccc34)cc2)C1.O=C(O)C(F)(F)F [compound 6b, 2-(4-hydroxyphenyl)-3-(4-(1-propylazetidin-3-yloxy)phenyl)benzo[b]thiophen-6-ol 2,2,2-trifluoroacetate]			10%	
		C[C@]12CC[C@@H]3c4ccc(O)cc4C[C@@H](CCCCCCCCC[S+]([O-])CCCC(F)(F)C(F)(F)F)[C@H]3[C@@H]1CC[C@@H]2O (some centres unmarked) [Fulvestrant]	0.02	18.9%		Downregulation (% of fulvestrant) (estrogen receptor alpha; 1E-5 M test compound, fulvestrant = 100 per definition, negative number = upregulation or stabilization): 100 ^a %
2 nM	81%	CCCN1CC(Oc2ccc(C(=O)c3c(-c4ccccc4Cl)noc3-c3ccc(O)cc3)cc2)C1.Cl [compound 6m, (3-(2-chlorophenyl)-5-(4-hydroxyphenyl)isoxazol-4-yl)(4-(1-propylazetidin-3-yloxy)phenyl)methanone hydrochloride]			7%	
